Measured values taken from patent US9656996B2, “Fused heterocyclic compound, preparation method therefor, pharmaceutical composition, and uses thereof” (SHANGHAI YINGLI PHARMACEUTICAL CO., LTD., priority 2013, dated 2017).

Legend:
[1] = target: PI3Kα (Homo sapiens (Human), UniProt P42336); test: PI3Kα enzymatic inhibitory activity IC50 assay; type: biochemical; conditions: selectivity ratio
Protocol: (§1) 1. Buffer preparation: 50 mM HEPES, pH 7.5, 3 mM MgCl2, 1 mM EGTA, 100 mM NaCl, 0.03% CHAPS.
(§2) 2. The compound was formulated in 100% DMSO in a concentration gradient, and deposited to a 384-well plate with a final DMSO concentration of 1%.
(§3) 3. PI3Kα, PI3Kδ, PI3Kβ and PI3Kγ enzymes (purchased from EMD Millipore) were diluted to the optimal concentration with the following buffer: 50 mM HEPES, pH 7.5, 3 mM MgCl2, 1 mM EGTA, 100 mM NaCl, 0.03% CHAPS, 2 mM DTT, transferred to a 384-well plate and incubated with the compound for a certain time.
(§4) 4. The substrate was diluted to an optimal concentration with the following buffer: 50 mM HEPES, pH 7.5, 3 mM MgCl2, 1 mM EGTA, 100 mM NaCl, 0.03% CHAPS, 2 mM DTT, 50 μM PIP2, 25 μM ATP and added to the 384-well plate to initiate the reaction. PI3Kα, PI3Kβ and PI3Kγ were allowed to react for 1 h at room temperature, and PI3Kδ reacted for 2 hours at room temperature. Another 10 μL ADP-Glo Detection Reagent also needed to be added for PI3Kβ and PI3Kγ, and then equilibrated at room temperature for 30 minutes.
(§5) 5. Luminescence was read by using Flexstation, and the inhibition rate was calculated as the average value of two tests.

[2] = target: PI3Kδ (Homo sapiens (Human), UniProt O00329); test: PI3Kδ enzymatic inhibitory activity IC50 assay; type: biochemical; conditions: luminescence readout, 25 μM ATP, 50 μM PIP2, 2 hours at room temperature
Protocol: as §1, §2, §3, §4, §5

[3] = target: PI3Kβ (Homo sapiens (Human), UniProt P42338); test: PI3Kβ enzymatic inhibitory activity IC50 assay; type: biochemical; conditions: selectivity ratio
Protocol: as §1, §2, §3, §4, §5

[4] = target: PI3Kγ (Homo sapiens (Human), UniProt P48736); test: PI3Kγ enzymatic inhibitory activity IC50 assay; type: biochemical; conditions: selectivity ratio
Protocol: as §1, §2, §3, §4, §5

[5] = tested on: Raji cell TNF-α generation; test: Inhibition of human Raji cell TNF-α generation induced by human IgM (ELISA); type: cell-based; conditions: Raji cells, IgM stimulation, 24 hours
Protocol: 1. Raji cell line (human Burkitt's lymphoma origin) (ATCC, Cat#CCL-86) was used.
2. Raji cells were applied onto the 96-well plate with 1×10^5/well.
3. The compounds to be screened were diluted to the corresponding test concentration, and added to the cell culture system 30 minutes prior to IgM stimulation.
4. 10 µg/ml IgM monoclonal antibody (JACKSON, Cat#109-006-129) was added to the cell culture system in order to stimulate the cells generating TNF-α.
5. After 24 hours, the amount of TNF-α produced by the cell line was determined by ELISA.
6. The inhibition rates at each concentration of the compound were calculated and plotted to calculate 50% inhibition rate (IC50), and the specific results were shown in table 3.

PI3Kα, sequence (P42336 whole entry, species assumed): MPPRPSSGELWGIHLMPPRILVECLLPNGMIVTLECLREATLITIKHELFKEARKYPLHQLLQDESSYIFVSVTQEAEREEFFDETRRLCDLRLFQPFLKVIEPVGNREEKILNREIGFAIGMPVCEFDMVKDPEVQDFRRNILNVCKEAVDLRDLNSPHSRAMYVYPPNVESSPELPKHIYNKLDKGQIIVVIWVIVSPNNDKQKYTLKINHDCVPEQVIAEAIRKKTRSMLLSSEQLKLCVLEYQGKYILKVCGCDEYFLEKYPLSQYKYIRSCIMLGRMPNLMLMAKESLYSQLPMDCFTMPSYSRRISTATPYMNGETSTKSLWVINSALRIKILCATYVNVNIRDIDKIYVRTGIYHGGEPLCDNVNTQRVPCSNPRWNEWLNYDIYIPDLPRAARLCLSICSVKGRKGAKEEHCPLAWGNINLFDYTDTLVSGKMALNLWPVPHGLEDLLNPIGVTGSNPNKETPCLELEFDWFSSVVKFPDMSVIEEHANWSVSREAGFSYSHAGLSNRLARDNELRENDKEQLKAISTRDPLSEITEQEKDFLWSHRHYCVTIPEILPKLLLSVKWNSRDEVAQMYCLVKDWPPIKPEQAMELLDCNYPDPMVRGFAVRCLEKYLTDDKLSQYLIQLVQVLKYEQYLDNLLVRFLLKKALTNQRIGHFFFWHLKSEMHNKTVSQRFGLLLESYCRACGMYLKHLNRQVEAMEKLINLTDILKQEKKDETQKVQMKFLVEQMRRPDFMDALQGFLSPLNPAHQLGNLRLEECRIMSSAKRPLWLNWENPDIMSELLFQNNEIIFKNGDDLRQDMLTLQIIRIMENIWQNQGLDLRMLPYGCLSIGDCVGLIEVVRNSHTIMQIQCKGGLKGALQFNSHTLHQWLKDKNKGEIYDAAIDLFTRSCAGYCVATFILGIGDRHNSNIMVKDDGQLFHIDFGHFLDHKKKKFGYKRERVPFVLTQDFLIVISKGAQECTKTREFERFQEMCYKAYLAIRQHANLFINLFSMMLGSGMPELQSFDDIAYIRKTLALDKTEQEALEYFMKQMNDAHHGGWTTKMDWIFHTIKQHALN
PI3Kα, sequence (P27986 whole entry partner, species assumed): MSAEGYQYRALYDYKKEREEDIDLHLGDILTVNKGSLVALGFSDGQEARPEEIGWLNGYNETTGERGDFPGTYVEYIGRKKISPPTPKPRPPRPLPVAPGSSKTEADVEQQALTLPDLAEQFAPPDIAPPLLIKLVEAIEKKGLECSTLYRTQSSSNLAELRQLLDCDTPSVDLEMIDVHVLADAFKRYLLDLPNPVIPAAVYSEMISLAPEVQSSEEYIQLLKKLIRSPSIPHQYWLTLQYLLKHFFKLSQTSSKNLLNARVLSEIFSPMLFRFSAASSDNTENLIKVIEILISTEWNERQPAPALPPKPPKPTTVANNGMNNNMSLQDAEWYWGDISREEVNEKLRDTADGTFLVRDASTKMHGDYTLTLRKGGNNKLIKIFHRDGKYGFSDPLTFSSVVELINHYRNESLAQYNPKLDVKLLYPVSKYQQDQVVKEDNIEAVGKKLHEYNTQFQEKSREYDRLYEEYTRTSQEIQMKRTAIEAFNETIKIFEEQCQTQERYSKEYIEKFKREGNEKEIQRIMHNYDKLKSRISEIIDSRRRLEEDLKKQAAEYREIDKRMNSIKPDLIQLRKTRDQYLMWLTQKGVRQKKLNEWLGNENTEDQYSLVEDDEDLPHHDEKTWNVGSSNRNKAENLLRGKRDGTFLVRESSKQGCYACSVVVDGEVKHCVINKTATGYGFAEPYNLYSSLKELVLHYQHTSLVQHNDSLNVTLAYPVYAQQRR
PI3Kβ, sequence (P42338 whole entry, species assumed): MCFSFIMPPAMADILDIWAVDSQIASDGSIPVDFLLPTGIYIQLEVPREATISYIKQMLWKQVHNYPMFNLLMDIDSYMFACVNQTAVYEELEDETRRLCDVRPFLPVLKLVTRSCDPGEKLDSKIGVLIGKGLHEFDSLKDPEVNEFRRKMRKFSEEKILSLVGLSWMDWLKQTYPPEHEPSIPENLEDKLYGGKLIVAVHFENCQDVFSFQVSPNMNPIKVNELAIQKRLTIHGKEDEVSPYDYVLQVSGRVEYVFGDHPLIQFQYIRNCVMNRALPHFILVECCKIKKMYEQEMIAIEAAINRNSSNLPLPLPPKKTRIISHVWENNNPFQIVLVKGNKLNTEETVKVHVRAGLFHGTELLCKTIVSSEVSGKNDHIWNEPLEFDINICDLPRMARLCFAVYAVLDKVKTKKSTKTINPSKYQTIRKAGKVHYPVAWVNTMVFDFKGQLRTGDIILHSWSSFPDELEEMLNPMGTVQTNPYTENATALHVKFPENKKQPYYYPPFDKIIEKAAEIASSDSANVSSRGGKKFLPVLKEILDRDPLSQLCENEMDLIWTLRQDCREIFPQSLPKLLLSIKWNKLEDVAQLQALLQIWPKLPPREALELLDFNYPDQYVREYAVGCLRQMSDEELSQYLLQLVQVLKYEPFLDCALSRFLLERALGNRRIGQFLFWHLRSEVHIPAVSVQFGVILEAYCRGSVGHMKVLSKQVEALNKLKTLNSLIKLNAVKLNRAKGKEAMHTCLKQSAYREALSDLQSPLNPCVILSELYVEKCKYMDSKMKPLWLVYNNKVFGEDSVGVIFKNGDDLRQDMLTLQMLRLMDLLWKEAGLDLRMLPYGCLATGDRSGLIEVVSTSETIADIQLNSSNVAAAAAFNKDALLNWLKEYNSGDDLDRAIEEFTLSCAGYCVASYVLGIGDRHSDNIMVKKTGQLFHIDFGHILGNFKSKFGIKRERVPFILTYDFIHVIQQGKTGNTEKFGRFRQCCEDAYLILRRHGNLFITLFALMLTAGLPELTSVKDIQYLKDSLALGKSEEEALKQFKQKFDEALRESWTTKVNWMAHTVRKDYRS
PI3Kβ, sequence (P27986 whole entry partner, species assumed): as the sequence (P27986 whole entry partner, species assumed) above
PI3Kγ, sequence (P48736 whole entry, species assumed): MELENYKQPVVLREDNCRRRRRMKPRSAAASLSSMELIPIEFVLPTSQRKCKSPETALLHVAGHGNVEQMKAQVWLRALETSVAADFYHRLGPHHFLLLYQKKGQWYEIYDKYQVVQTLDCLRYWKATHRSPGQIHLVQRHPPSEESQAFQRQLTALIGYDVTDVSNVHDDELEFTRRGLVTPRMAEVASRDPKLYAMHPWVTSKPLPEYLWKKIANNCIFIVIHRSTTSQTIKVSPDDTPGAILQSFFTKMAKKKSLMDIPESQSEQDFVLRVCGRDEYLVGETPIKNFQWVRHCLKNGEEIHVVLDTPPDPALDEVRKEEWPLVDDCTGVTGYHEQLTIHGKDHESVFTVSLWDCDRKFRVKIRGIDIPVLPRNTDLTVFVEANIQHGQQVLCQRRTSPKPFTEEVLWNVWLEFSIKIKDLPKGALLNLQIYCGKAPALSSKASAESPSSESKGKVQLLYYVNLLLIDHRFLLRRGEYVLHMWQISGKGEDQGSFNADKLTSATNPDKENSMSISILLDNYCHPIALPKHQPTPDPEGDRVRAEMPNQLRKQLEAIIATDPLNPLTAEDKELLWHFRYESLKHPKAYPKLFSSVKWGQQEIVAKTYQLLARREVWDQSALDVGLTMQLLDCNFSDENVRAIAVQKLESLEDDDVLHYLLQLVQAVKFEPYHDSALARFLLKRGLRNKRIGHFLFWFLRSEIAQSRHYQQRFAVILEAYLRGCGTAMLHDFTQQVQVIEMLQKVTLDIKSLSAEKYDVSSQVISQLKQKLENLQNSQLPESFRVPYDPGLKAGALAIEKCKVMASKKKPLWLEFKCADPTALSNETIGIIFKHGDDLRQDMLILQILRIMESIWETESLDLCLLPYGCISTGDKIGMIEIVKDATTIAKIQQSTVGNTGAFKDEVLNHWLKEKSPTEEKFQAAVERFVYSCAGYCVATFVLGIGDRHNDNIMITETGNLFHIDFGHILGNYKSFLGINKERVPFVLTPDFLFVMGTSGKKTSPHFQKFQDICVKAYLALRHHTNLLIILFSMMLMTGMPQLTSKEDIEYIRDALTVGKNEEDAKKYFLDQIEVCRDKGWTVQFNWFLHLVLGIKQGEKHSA
PI3Kδ, sequence (O00329 whole entry, species assumed): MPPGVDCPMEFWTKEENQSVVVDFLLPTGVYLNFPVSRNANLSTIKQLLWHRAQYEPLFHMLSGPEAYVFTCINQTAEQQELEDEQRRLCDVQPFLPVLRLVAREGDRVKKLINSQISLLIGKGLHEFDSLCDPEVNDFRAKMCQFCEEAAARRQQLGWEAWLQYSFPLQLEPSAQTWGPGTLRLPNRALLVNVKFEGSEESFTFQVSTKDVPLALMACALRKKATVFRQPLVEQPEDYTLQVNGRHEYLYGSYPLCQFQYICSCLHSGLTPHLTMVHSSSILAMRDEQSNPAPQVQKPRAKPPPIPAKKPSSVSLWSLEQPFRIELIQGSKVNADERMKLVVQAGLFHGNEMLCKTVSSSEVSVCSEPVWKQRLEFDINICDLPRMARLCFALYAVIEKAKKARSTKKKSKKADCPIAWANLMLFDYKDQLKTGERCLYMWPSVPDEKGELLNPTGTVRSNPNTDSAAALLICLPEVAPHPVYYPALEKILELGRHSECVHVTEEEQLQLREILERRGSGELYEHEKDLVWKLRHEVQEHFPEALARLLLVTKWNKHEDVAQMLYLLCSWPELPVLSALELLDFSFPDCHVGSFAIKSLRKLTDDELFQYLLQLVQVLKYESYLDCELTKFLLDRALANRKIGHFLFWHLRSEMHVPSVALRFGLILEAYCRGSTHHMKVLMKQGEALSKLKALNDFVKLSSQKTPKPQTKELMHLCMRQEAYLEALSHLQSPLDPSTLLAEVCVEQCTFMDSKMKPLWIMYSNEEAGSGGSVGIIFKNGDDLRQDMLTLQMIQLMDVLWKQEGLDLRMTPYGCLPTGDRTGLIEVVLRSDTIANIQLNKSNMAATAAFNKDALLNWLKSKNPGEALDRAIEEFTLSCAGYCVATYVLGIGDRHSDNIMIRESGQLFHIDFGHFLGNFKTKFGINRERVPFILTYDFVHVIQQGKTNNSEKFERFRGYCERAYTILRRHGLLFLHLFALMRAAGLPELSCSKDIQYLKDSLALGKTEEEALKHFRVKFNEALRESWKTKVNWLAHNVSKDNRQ
PI3Kδ, sequence (P27986 whole entry partner, species assumed): as the sequence (P27986 whole entry partner, species assumed) above

SMILES | α/δ (ratio of IC50 values against PI3Kα to PI3Kδ) [1] | IC50 [2] [nM] | β/δ (ratio of IC50 values against PI3Kβ to PI3Kδ) [3] | γ/δ (ratio of IC50 values against PI3Kγ to PI3Kδ) [4] | IC50 [5] [nM]
COc1ncc(-c2nc(N3CCOCC3)nc3c(CN4CCN(C)C(=O)C4)cc(F)cc23)cc1NS(C)(=O)=O [Compound 29] | 22 | 19 | – | – | –
COc1ncc(-c2nc(N3CCOCC3)nc3c(OC4CCC(C(C)(C)O)CC4)cc(F)cc23)cc1NS(C)(=O)=O (centres unmarked) [Compound 28] | 63 | 77 | >129 | >129 | –
COc1ncc(-c2nc(N3CCOCC3)nc3c(CN4CC[C@@H](N5CCCCC5=O)C4)cc(F)cc23)cc1NS(C)(=O)=O [Compound 24] | 45 | 21 | – | – | –
COc1ncc(-c2nc(N3CCOCC3)nc3c(CN4CCC(N5CCCCC5)CC4)cccc23)cc1NS(C)(=O)=O [Compound 3] | 119 | 31 | – | – | 31.7
COc1ncc(-c2nc(N3CCOCC3)nc3c(CN4CCC(N5CCCCC5)CC4)cc(F)cc23)cc1NS(C)(=O)=O [Compound 7] | 130 | 31 | 166 | >322 | 34.8
COc1ncc(-c2nc(N3CCOCC3)nc3c(OCCN4CCCCC4)cc(F)cc23)cc1NS(C)(=O)=O [Compound 33] | 113 | 47.1 | – | – | 260
CN1CCN(Cc2cnc3c(-c4cncc(NS(C)(=O)=O)c4)nc(N4CCOCC4)cn23)CC1 [Compound 14] | >9 | 1040 | – | – | –
COc1ncc(-c2nc(N3CCOCC3)nc3c(CN4CCC(C(C)(C)O)CC4)cc(F)cc23)cc1NS(C)(=O)=O [Compound 10] | 320 | 6.4 | 31 | >1000 | 66
CS(=O)(=O)N1CCN(Cc2cnn3c(-c4cccc5[nH]ncc45)cc(N4CCOCC4)nc23)CC1 [Compound 11] | 2.3 | 606 | – | – | –
COc1ncc(-c2nc(N3CCOCC3)nc3c(CN4CCC(C(C)(C)O)CC4)cccc23)cc1NS(C)(=O)=O [Compound 1] | 341 | 7.6 | – | – | 29.1
COc1ncc(-c2nc(N3CCOCC3)nc3c(OC4CC(C(C)(C)O)C4)cc(F)cc23)cc1NS(C)(=O)=O (centres unmarked) [Compound 37] | 42 | 117 | >85 | >85 | –
COc1ncc(-c2nc(N3CCOCC3)c3nc(OC4CCN(C5COC5)CC4)n(C)c3n2)cc1NS(C)(=O)=O [Compound 18] | 11 | 4.2 | – | – | 15.2
Nc1ncc(-c2nc(N3CCOCC3)nc3c(CN4CCN(C(=O)CO)CC4)cc(F)cc23)cn1 [Compound 22] | 2 | 31 | – | – | –
COc1ncc(-c2nc(N3CCOCC3)nc3c(CN4CCC(N5CCC5)CC4)cc(F)cc23)cc1NS(C)(=O)=O [Compound 9] | 233 | 19 | – | – | –
COc1ncc(-c2nc(N3CCOCC3)c3nc(OC4CCOCC4)n(C)c3n2)cc1NS(C)(=O)=O [Compound 20] | 15 | 4.6 | – | – | –
COc1ncc(-c2nc(N3CCOCC3)nc3c(O[C@@H]4CCOC4)cc(F)cc23)cc1NS(C)(=O)=O [Compound 30] | 15 | 41 | – | – | 352

SMILES | α/δ (ratio of IC50 values against PI3Kα to PI3Kδ) [1] | IC50 [2] [nM] | β/δ (ratio of IC50 values against PI3Kβ to PI3Kδ) [3] | γ/δ (ratio of IC50 values against PI3Kγ to PI3Kδ) [4] | IC50 [5] [nM]
CS(=O)(=O)N1CCN(Cc2cccc3c(-c4cnc(N)nc4)nc(N4CCOCC4)nc23)CC1 [Compound 5] | 1 | 58.6 | – | – | –
CS(=O)(=O)N1CCN(Cc2cccc3c(-c4cccc5[nH]ncc45)nc(N4CCOCC4)nc23)CC1 [Compound 6] | 2.4 | 457 | – | – | –
C[C@@H](O)C(=O)N1CCN(Cc2cccc3c(-c4cnc(N)nc4)nc(N4CCOCC4)nc23)CC1 [Compound 4] | 2 | 45 | – | – | –
COc1ncc(-c2nc(N3CCOCC3)nc3c(OC4CN(C(=O)C(C)C)C4)cc(F)cc23)cc1NS(C)(=O)=O [Compound 39] | 58 | 22 | – | – | 108
COc1ncc(-c2nc(N3CCOCC3)nc3c(OCC4CCOCC4)cc(F)cc23)cc1NS(C)(=O)=O [Compound 31] | 24 | 27 | – | – | –
COc1ncc(-c2nc(N3CCOCC3)c3nc(OC4CCC(N5CCCC5)CC4)n(C)c3n2)cc1NS(C)(=O)=O (centres unmarked) [Compound 21] | 91 | 15.3 | – | – | –
COc1ncc(-c2nc(N3CCOCC3)nc3c(CN4CCC(OC)CC4)cccc23)cc1NS(C)(=O)=O [Compound 2] | 368 | 17 | – | – | 92.7
COc1ncc(-c2nc(N3CCOCC3)c3cc(CN4CCC(N5CCCCC5)CC4)ccc3n2)cc1NS(C)(=O)=O [Compound 15] | 23 | 345 | >29 | >29 | –
COc1ncc(-c2nc(N3CCOCC3)nc3c(CN4CCC[C@H]4C(C)(C)O)cc(F)cc23)cc1NS(C)(=O)=O [Compound 26] | 32 | 87 | – | – | –
CC(C)(O)C1CCN(Cc2cnc3c(-c4cncc(NS(C)(=O)=O)c4)nc(N4CCOCC4)cn23)CC1 [Compound 13] | >42 | 239 | – | – | –
COc1ncc(-c2nc(N3CCOCC3)nc3c(OC4CN(C5CCOCC5)C4)cc(F)cc23)cc1NS(C)(=O)=O [Compound 38] | 28 | 15.8 | – | – | 32
COc1ncc(-c2nc(N3CCOCC3)nc3c(CN4CC(C(C)(C)O)C4)cc(F)cc23)cc1NS(C)(=O)=O [Compound 27] | 83 | 24 | – | – | 230
COc1ncc(-c2nc(N3CCOCC3)c3sc(CN4CCC(C(C)(C)O)CC4)c(C)c3n2)cc1NS(C)(=O)=O [Compound 17] | 38 | 3.4 | – | – | –
COc1ncc(-c2nc(N3CCOCC3)nc3c(OC4CCOCC4)cc(F)cc23)cc1NS(C)(=O)=O [Compound 32] | 23 | 38 | – | – | –
COc1ncc(-c2nc(N3CCOCC3)c3nc(OC4CN(C5CCCCC5)C4)n(C)c3n2)cc1NS(C)(=O)=O [Compound 19] | 88 | 5 | – | – | –
COc1ncc(-c2nc(N3CCOCC3)nc3c(CN4CCC(N5CCCC5)CC4)cc(F)cc23)cc1NS(C)(=O)=O [Compound 8] | 292 | 9.8 | – | – | 28.4
